Measurements from paper PMC4775225, “Bromodomain inhibition of the transcriptional coactivators CBP/EP300 as a therapeutic strategy to target the IRF4 network in multiple myeloma” (eLife, 2016).

Key:
[1] = molecular target: T1, CBP bromodomain (amino acids 1082–1197) (Homo sapiens, UniProt Q92793); assay: AlphaLISA, acetylated peptide binding to CBP bromodomain
T1 construct: His-Flag-tagged CBP bromodomain (amino acids 1082–1197)
Experimental: Compound at varying concentrations were dispensed into 384 well Proxiplates (Perkin Elmer) using Echo technology (Labcyte, Inc.; Sunnyvale, CA). For CBP assays, 0.5 μM His-Flag-tagged CBP bromodomain (amino acids 1082–1197) was incubated with 0.003 μM H4-TetraAc-biotin for 20 min at room temperature in 1x reaction buffer (50 mM HEPES pH 7.5, 1 mM TCEP, 0.069 mM Brij-35, 150 mM NaCl, and 0.1 mg/ml BSA). Streptavidin acceptor beads and nickel donor beads (Perkin Elmer) were added to 15 μg/ml with a Combi Multidrop dispenser. Plates were sealed and incubated at 90 min in the dark at room temperature, and plates were read on an Envision plate reader (Perkin Elmer) according to manufacturer’s instructions. For the BET assays, the protocol was similar except that BET family bromodomains were used at 0.03 μM (BRD4-BD1) and incubated with 0.2 μM H4-TetraAc-biotin for 20 min in reaction buffer (40 mM HEPES pH7.0, 1 mM DTT, 0.069 mM Brij-35, 40 mM NaCl, and 0.1 mg/ml BSA). Streptavidin donor beads and Anti-Flag Acceptor beads (Perkin Elmer) were added to 10 μg/ml, and then plates were sealed and incubated in the dark for 60 min prior to reading on the Envision.

[2] = molecular target: T2, CBP bromodomain and histone H3.3 (Homo sapiens, UniProt Q92793); assay: NanoBRET, CBP bromodomain/histone H3.3 in HEK293 cells; format: cell-based; conditions: 293 cells, CBP bromodomain and histone H3.3; n = 3 technical replicates ± SEM
T2 construct: NanoBRET with the isolated CBP bromodomain and histone H3.3 in 293 cells; host or cells: HEK293
T2 sequence (Q92793 1085-1192 limits assumed): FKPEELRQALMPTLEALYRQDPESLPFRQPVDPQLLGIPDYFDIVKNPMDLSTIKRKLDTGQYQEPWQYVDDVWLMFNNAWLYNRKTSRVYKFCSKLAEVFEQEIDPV
Experimental: NanoBRET was carried out using the NanoBRET Protein:Protein Interaction System (Promega, Inc.; Madison, WI) according to the manufacturer’s instructions. Briefly, HEK293 cells were transiently co-transfected with a vector for histone H3.3-HaloTag and a NanoLuc tagged CBP bromodomain expression construct. Transfected cells were plated in 96 -well plates in the presence or absence of ligand, then treated with dose titrations of indicated compounds. Readings were performed on an Envision Plate Reader (Perkin Elmer, Inc.; Waltham, MA) and BRET readings were calculated by dividing the acceptor emission value (600 nm) by the donor emission value (460/50 nm).

Nalm6 = assay: Viability, resazurin, 6 days; format: cell-based; conditions: Homo sapiens, NALM-6, 144 h, Nalm6, ALL
Experimental: Cells were plated at 5000–10000 cells per well of 96-well plates containing titrations of the compounds as indicated. After incubation, the cells were incubated with 500 μg/ml resazurin (Sigma) in PBS for 2–8 hr, and fluorescence was measured (Ex 530 nm, Em 590 nm). Cell cycle analysis was performed as described previously ([Mertz et al., 2011]). For visualization, DNA content histograms were generated with GraphPad Prism. Dose-response curves were generated by plotting the normalized percent growth, percent sub-G1 and percent increase in G0/G1 at each dose values. GI50 values were determined as the concentration at which viability was 50% of the DMSO value and calculated by a four-parameter non-linear regression model in GraphPad Prism.

[3] = system: H3K18 and H3K27 acetylation in LP-1 cells; assay: Western analysis of global histone acetylation; format: cell-based, human; conditions: LP-1, 16 hr
Experimental: Whole cell extracts were prepared by lysis in RIPA buffer + EDTA (Boston Bioproducts, Inc.; Ashland, MA) with protease inhibitor cocktail (Roche Life Sciences; Indianapolis, IN). Extracts were subjected to SDS-PAGE and Western analysis with MYC (Cell Signaling (Danvers, MA) #5605), IRF4 (Cell Signaling #4964 or #4948), GAPDH (Life Technologies AM4300), CBP (Santa Cruz (Dallas, TX) sc-369), EP300 (Santa Cruz sc-584), or β-actin (Life Technologies AM4302) primary antibodies. For histone analysis, extracts were prepared by sulfuric acid extraction of permeablized nuclei, and extracted histones were subjected to SDS-PAGE and Western analysis with H3K18ac (Cell Signaling #9675), H3K27ac (EMD Millipore (Billerica, MA) 07–360), or H4 (Abcam (Cambridge, MA) 31830). Blots were incubated with DyLight conjugated secondary antibodies, imaged and quantified with a Licor fluorescence imager (Licor, Inc.; Lincoln, NE), or with HRP- conjugated secondary antibodies for ECL visualization.

T1 sequence (Q92793 1082-1197): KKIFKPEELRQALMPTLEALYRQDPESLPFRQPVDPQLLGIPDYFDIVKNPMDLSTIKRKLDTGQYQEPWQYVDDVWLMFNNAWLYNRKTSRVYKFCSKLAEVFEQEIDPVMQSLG

| IC50 [1] [nM] | IC50 (μM), CBP BRET (EC50, NanoBRET) [2] [µM] | SMILES | GI50 (Nalm6) [nM] | changes in the global levels of H3K18 or H3K27 acetylation [3] |
| --- | --- | --- | --- | --- |
| 190 ± 20 | 0.25 ± 0.03 | CCC(=O)N1CCOc2c(cc(-c3ccc(OC)c(OC)c3)cc2OC[C@H]2CCCN(C)C2)C1 [I-CBP112] | – | – |
| – | – | COc1ccc(CCc2nc3cc(-c4c(C)noc4C)ccc3n2C[C@H](C)N2CCOCC2)cc1Cl [SGC-CBP30] | 3860 | did not observe any significant changes |
